Laboratory results taken from patent US20230011869A1 (Hoffmann-La Roche Inc., priority 2018, published 2023).
Where a name gives a salt, the structure may show the parent alone.

The compounds below were run on Acinetobacter baumannii ATCC17978 (assay: Antimicrobial susceptibility testing: 90% growth inhibitory concentration (IC90) determination, Iso-Sensitest broth). Conditions: 90% growth inhibitory concentration, Acinetobacter baumannii ATCC17978, Iso-Sensitest broth, OD 600 nm over 16 h; read-out: ATCC17978 IC90.
Type: cell-based
Procedure, shortened: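 A. baumannii ATCC17978 grown in Iso-Sensitest broth across 10 compound concentrations at 35±2 °C.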

First: COc1ccc(-c2cnc3c(Nc4ccc(C(=O)N5CCC(C(=O)N6CCNC(C(=O)O)C6)CC5)c(C)c4)nccn23)c(F)c1F (stereo not shown) [Example 266, 4-[1-[4-[[3-(2,3-difluoro-4-methoxyphenyl)imidazo[1,2-a]pyrazin-8-yl]amino]-2-methylbenzoyl]piperidine-4-carbonyl]piperazine-2-carboxylic acid]
Second: COc1ccc(-c2cnc3c(Nc4ccc(C(=O)N5CCC(C(=O)N6CCN(C)C(C(=O)O)C6)CC5)c(C)c4)nccn23)c(F)c1F (stereo not shown) [Example 273, 4-[1-[4-[[3-(2,3-difluoro-4-methoxyphenyl)imidazo[1,2-a]pyrazin-8-yl]amino]-2-methylbenzoyl]piperidine-4-carbonyl]-1-methylpiperazine-2-carboxylic acid]
The IC90 of the first is 2.2-fold lower: 1100 nM for the first, 2400 nM for the second.

Compared with `Cc1cc(Nc2nccn3c(-c4ccc(OC(F)F)cc4)cnc23)ccc1C(=O)N1CCN(C(=O)CC[C@@H](N)C(=O)O)CC1` [Example 271, (2R)-2-amino-5-[4-[4-[[3-[4-(difluoromethoxy)phenyl]imi-dazo[1,2-a]pyrazin-8-yl]amino]-2-methylbenzoyl]piperazin-1-yl]-5-oxopentanoic acid; formic acid], `COc1ccc(-c2cnc3c(Nc4ccc(C(=O)N5CCC(C(=O)NC(CN(C)C)C(=O)O)CC5)c(C)c4)nccn23)cc1F` (stereo not shown) [Example 278, 3-(dimethylamino)-2-[[1-[4-[[3-(3-fluoro-4-methoxyphenyl)imidazo[1,2-a]pyrazin-8-yl]amino]-2-methylbenzoyl]piperidine-4-carbonyl]amino]propanoic acid] is 1.8-fold higher in IC90: 2100 nM for the first, 3800 nM for the second.

`Cc1cc(Nc2nccn3c(-c4ccc(OCC#CCN)c(F)c4)cnc23)ccc1C(=O)N1CCC(CNC(=O)OC(C)(C)C)CC1` [Example 274, tert-butyl N-[[1-[4-[[3-[4-(4-aminobut-2-ynoxy)-3-fluorophenyl]imidazo[1,2-a]pyrazin-8-yl]amino]-2-methylbenzoyl]piperidin-4-yl]methyl]carbamate] and `COc1ccc(-c2cnc3c(Nc4ccc(C(=O)N5CCC(C(=O)NCCS(=O)(=O)O)CC5)c(C)c4)nccn23)cc1F` [Example 303, 2-[[1-[4-[[3-(3-fluoro-4-methoxyphenyl)imidazo[1,2-a]pyrazin-8-yl]amino]-2-methylbenzoyl]piperidine-4-carbonyl]amino]ethanesulfo-nic acid] are within 1.5-fold of each other in IC90: 2800 nM for the first, 3500 nM for the second.

Compared with `COc1ccc(-c2cnc3c(Nc4ccc(C(=O)N5CCC(C(=O)NCC6(O)CNC6)CC5)c(C)c4)nccn23)c(F)c1F` [Example 285, 1-[4-[[3-(2,3-difluoro-4-methoxyphenyl)imidazo[1,2-a]pyrazin-8-yl]amino]-2-methylbenzoyl]-N-[(3-hydroxyazetidin-3-yl)methyl]piperidine-4-carboxamide], `COc1ccc(-c2cnc3c(Nc4ccc(C(=O)N5CCC(C(=O)NC[C@H](O)[C@@H](O)[C@H](O)[C@H](O)CO)CC5)c(C)c4)nccn23)c(F)c1F` [Example 300, 1-[4-[[3-(2,3-difluoro-4-methoxyphenyl)imidazo[1,2-a]pyrazin-8-yl]amino]-2-methylbenzoyl]-N-[(2S,3R,4R,5R)-2,3,4,5,6-pentahydroxyhexyl]piperidine-4-carboxamide] is 3-fold higher in IC90: 71 nM for the first, 210 nM for the second.

`COc1ccc(-c2cnc3c(Nc4ccc(C(=O)N5CCC(C(=O)N6C[C@H](CO)[C@@H](O)[C@H](O)C6)CC5)c(C)c4)nccn23)c(F)c1F` [Example 296, [4-[[3-(2,3-difluoro-4-methoxyphenyl)imidazo[1,2-a]pyrazin-8-yl]amino]-2-methylphenyl]-[4-[(3R,4R,5R)-3,4-dihydroxy-5-(hydroxymethyl)piperidine-1-carbonyl]piperidin-1-yl]methanone] gave an IC90 of 180 nM.

Same assay, conditions: Acinetobacter baumannii, ATCC17978, 16 h, read-out: ATCC17978 IC90, 90% growth inhibitory concentration, Acinetobacter baumannii ATCC17978, Iso-Sensitest broth, OD 600 nm over 16 h

Going from `Cc1cc(Nc2nccn3c(-c4ccc(OC(F)F)cc4)cnc23)ccc1C(=O)N1CCN(C(=O)[C@H]2CC[C@H](C(=O)O)CC2)CC1` [Example 265, 4-[4-[4-[[3-[4-(difluoromethoxy)phenyl]imi-dazo[1,2-a]pyrazin-8-yl]amino]-2-methylbenzoyl]piperazine-1-carbonyl]cyclohexane-1-carboxylic acid] to `Cc1cc(Nc2nccn3c(-c4ccc(OC(F)F)cc4)cnc23)ccc1C(=O)N1CCN(C(=O)[C@@H](N)CCC(=O)O)CC1` [Example 272, (4S)-4-amino-5-[4-[4-[[3-[4-(difluoromethoxy)phenyl]imi-dazo[1,2-a]pyrazin-8-yl]amino]-2-methylbenzoyl]piperazin-1-yl]-5-oxopentanoic acid; hydrochloride], the IC90 rises from 1100 nM to 2200 nM (2-fold).

First: Cc1cc(Nc2nccn3c(-c4ccc(OC(F)F)cc4)cnc23)ccc1C(=O)N1CCN(C(=O)C2(C)CNC2)CC1 [Example 267, [4-[[3-[4-(difluoromethoxy)phenyl]imi-dazo[1,2-a]pyrazin-8-yl]amino]-2-methylphenyl]-[4-(3-methylazetidine-3-carbonyl)piperazin-1-yl]methanone]
Second: Cc1cc(Nc2nccn3c(-c4ccc(OC(F)F)cc4)cnc23)ccc1C(=O)N1CCN(C(=O)CN(C)CC(=O)O)CC1 [Example 281, 2-[[2-[4-[4-[[3-[4-(difluoromethoxy)phenyl]imi-dazo[1,2-a]pyrazin-8-yl]amino]-2-methylbenzoyl]piperazin-1-yl]-2-oxoethyl]-methylamino]acetic acid]
The IC90 of the first is 3.6-fold lower: 1300 nM for the first, 4700 nM for the second.

Compared with `Cc1cc(Nc2nccn3c(-c4ccc(OC(F)F)cc4)cnc23)ccc1C(=O)N1CCC(C(=O)N(C)C[C@H](O)[C@@H](O)[C@@H](O)[C@H](O)CO)CC1` [Example 268, 1-[4-[[3-[4-(difluoromethoxy)phenyl]imi-dazo[1,2-a]pyrazin-8-yl]amino]-2-methylbenzoyl]-N-methyl-N-[(2S,3R,4S,5R)-2,3,4,5,6-pentahydroxyhexyl]piperidine-4-carboxamide], `Cc1cc(Nc2nccn3c(-c4ccc(OC(F)F)cc4)cnc23)ccc1C(=O)N1CCC(C(=O)NCC(O)CN)CC1` (stereo not shown) [Example 299, N-(3-amino-2-hydroxypropyl)-1-[4-[[3-[4-(difluoromethoxy)phenyl]imi-dazo[1,2-a]pyrazin-8-yl]amino]-2-methylbenzoyl]piperidine-4-carboxamide; hydrochloride] is 7.5-fold lower in IC90: 1500 nM for the first, 200 nM for the second.

First: Cc1cc(Nc2nccn3c(-c4ccc(OC(F)F)cc4)cnc23)ccc1C(=O)N1CCN(C(=O)c2cc(C(=O)O)ncn2)CC1 [Example 269, 6-[4-[4-[[3-[4-(difluoromethoxy)phenyl]imi-dazo[1,2-a]pyrazin-8-yl]amino]-2-methylbenzoyl]piperazine-1-carbonyl]pyrimidine-4-carboxylic acid]
Second: Cc1cc(Nc2nccn3c(-c4ccc(OC(F)F)cc4)cnc23)ccc1C(=O)N1CCN(C(=O)c2cccc(C(=O)O)c2)CC1 [Example 277, 3-[4-[4-[[3-[4-(difluoromethoxy)phenyl]imi-dazo[1,2-a]pyrazin-8-yl]amino]-2-methylbenzoyl]piperazine-1-carbonyl]benzoic acid]
The IC90 of the first is 1.9-fold lower: 2000 nM for the first, 3800 nM for the second.

Compared with `Cc1cc(Nc2nccn3c(-c4ccc(OC(F)F)cc4)cnc23)ccc1C(=O)N1CCC(C(=O)N2C[C@H](O)[C@@H](O)[C@@H](O)[C@H]2CO)CC1` [Example 270, [4-[[3-[4-(difluoromethoxy)phenyl]imi-dazo[1,2-a]pyrazin-8-yl]amino]-2-methylphenyl]-[4-[(2R,3S,4R,5S)-3,4,5-trihydroxy-2-(hydroxymethyl)piperidine-1-carbonyl]piperidin-1-yl]methanone], `Cc1cc(Nc2nccn3c(-c4ccc(OC(F)F)cc4)cnc23)ccc1C(=O)N1CCC(C(=O)NC[C@H]2CNC(=O)O2)CC1` [Example 298, 1-[4-[[3-[4-(difluoromethoxy)phenyl]imi-dazo[1,2-a]pyrazin-8-yl]amino]-2-methylbenzoyl]-N-[[(5S)-2-oxo-1,3-oxazolidin-5-yl]methyl]piperidine-4-carboxamide] is 10-fold lower in IC90: 2000 nM for the first, 200 nM for the second.

`Cc1cc(Nc2nccn3c(-c4ccc(OC(F)F)cc4)cnc23)ccc1C(=O)N1CCN(C(=O)[C@H](N)CCC(=O)O)CC1` [Example 275, (4R)-4-amino-5-[4-[4-[[3-[4-(difluoromethoxy)phenyl]imi-dazo[1,2-a]pyrazin-8-yl]amino]-2-methylbenzoyl]piperazin-1-yl]-5-oxopentanoic acid; hydrochloride] and `Cc1cc(Nc2nccn3c(-c4ccc(OC(F)F)cc4)cnc23)ccc1C(=O)N1CCN(C(=O)c2ccc(C(=O)O)cc2)CC1` [Example 280, 4-[4-[4-[[3-[4-(difluoromethoxy)phenyl]imi-dazo[1,2-a]pyrazin-8-yl]amino]-2-methylbenzoyl]piperazine-1-carbonyl]benzoic acid] are within 1.5-fold of each other in IC90: 3100 nM for the first, 4500 nM for the second.

Compared with `Cc1cc(Nc2nccn3c(-c4ccc(OC(F)F)cc4)cnc23)ccc1C(=O)N1CCN(C(=O)c2cccc(S(=O)(=O)O)c2)CC1` [Example 276, 3-[4-[4-[[3-[4-(difluoromethoxy)phenyl]imi-dazo[1,2-a]pyrazin-8-yl]amino]-2-methylbenzoyl]piperazine-1-carbonyl]benzenesulfonic acid], `Cc1cc(Nc2nccn3c(-c4ccc(OC(F)F)cc4)cnc23)ccc1C(=O)N1CCC(N(C)CCN(C)C)CC1` [Example 301, [4-[[3-[4-(difluoromethoxy)phenyl]imi-dazo[1,2-a]pyrazin-8-yl]amino]-2-methylphenyl]-[4-[2-(dimethylamino)ethyl-methylamino]piperidin-1-yl]methanone] is 4.6-fold lower in IC90: 3300 nM for the first, 720 nM for the second.

Going from `COc1ccc(-c2cnc3c(Nc4ccc(C(=O)N5CCC(C(=O)NCC6(O)CCNC6)CC5)c(C)c4)nccn23)c(F)c1F` (stereo not shown) [Example 286, 1-[4-[[3-(2,3-difluoro-4-methoxyphenyl)imidazo[1,2-a]pyrazin-8-yl]amino]-2-methylbenzoyl]-N-[(3-hydroxypyrrolidin-3-yl)methyl]piperidine-4-carboxamide; hydrochloride] to `COc1ccc(-c2cnc3c(Nc4ccc(C(=O)N5CCC(C(=O)NCC(O)CN)CC5)c(C)c4)nccn23)c(F)c1F` (stereo not shown) [Example 291, N-(3-amino-2-hydroxypropyl)-1-[4-[[3-(2,3-difluoro-4-methoxyphenyl)imidazo[1,2-a]pyrazin-8-yl]amino]-2-methylbenzoyl]piperidine-4-carboxamide; hydrochloride], the IC90 rises from 73 nM to 110 nM (1.5-fold).
